target: mGluR5 (Homo sapiens, UniProt P41594); assay: mGluR5 PAM EC50 (positive allosteric modulator potency); format: cell-based
Sequence (P41594 21-1212): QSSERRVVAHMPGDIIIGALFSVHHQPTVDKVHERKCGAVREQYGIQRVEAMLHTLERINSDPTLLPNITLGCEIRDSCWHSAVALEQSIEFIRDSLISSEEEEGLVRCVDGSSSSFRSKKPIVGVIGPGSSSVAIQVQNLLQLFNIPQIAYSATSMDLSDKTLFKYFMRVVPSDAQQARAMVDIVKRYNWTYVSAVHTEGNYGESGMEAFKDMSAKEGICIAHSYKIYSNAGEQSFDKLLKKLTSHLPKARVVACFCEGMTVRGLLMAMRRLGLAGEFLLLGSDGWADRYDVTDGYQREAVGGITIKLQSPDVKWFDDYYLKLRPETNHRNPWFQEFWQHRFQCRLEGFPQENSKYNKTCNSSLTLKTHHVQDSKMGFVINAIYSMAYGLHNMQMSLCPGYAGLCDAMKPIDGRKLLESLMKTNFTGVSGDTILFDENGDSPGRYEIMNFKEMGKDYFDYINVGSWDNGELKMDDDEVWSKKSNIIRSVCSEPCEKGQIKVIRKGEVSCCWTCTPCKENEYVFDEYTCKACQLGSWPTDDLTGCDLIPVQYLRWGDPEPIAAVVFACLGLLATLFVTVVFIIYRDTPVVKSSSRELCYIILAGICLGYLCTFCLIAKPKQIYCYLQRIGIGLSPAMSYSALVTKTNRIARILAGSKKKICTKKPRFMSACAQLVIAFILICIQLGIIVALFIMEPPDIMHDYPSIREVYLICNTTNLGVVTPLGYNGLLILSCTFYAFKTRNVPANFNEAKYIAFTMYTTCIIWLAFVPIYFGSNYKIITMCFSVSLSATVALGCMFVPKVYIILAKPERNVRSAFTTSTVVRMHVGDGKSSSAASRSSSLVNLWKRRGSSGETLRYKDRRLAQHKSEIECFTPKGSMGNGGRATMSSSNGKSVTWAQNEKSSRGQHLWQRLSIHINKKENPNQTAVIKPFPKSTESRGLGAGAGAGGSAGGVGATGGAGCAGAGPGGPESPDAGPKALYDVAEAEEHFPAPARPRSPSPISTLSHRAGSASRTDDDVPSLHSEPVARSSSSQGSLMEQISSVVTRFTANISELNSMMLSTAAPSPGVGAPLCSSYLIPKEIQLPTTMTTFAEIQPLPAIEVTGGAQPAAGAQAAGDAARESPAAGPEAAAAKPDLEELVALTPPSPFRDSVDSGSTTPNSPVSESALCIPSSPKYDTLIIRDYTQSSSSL

Structure (SMILES)	EC50 [nM]
COCC1Cc2nc3cc(C#Cc4ccccn4)ccc3c(=O)n2C1 (single isomer, unassigned) [Example 1.1b]	100 to 300
CC(C)(O)C1Cc2nc3cc(C#Cc4ccccn4)ccc3c(=O)n2C1 (single isomer, unassigned) [Example 1.2a]	10 to 30
CC(C)(O)C1Cc2nc3cc(C#Cc4ccccn4)ccc3c(=O)n2C1 (single isomer, unassigned) [Example 1.2b]	300 to 1000
CC(C)(F)C1Cc2nc3cc(C#Cc4ccccn4)ccc3c(=O)n2C1 (single isomer, unassigned) [Example 1.3a]	< 10
CC(C)(F)C1Cc2nc3cc(C#Cc4ccccn4)ccc3c(=O)n2C1 (single isomer, unassigned) [Example 1.3b]	100 to 300
O=c1c2ccc(C#Cc3ccccn3)cc2nc2n1CC(CF)C2 (single isomer, unassigned) [Example 1.9a]	30 to 100
O=c1c2ccc(C#Cc3ccccn3)cc2nc2n1CC(CF)C2 (single isomer, unassigned) [Example 1.9b]	300 to 1000
CC1(C)Cn2c(nc3cc(C#Cc4ccccn4)ccc3c2=O)C1F (single isomer, unassigned) [Example 1.11a]	< 10
CC1(C)Cn2c(nc3cc(C#Cc4ccccn4)ccc3c2=O)C1F (single isomer, unassigned) [Example 1.11b]	10 to 30
CC1CCn2c(nc3cc(C#Cc4ccccn4)ccc3c2=O)C1 (single isomer, unassigned) [Example 2.1a]	10 to 30
CC1CCc2nc3cc(C#Cc4ccccn4)ccc3c(=O)n2C1 (single isomer, unassigned) [Example 2.2b]	10 to 30
CC1CCCc2nc3cc(C#Cc4ccccn4)ccc3c(=O)n21 (single isomer, unassigned) [Example 2.3b]	< 10
CC1Cn2c(nc3cc(C#Cc4ccccn4)ccc3c2=O)CO1 (single isomer, unassigned) [Example 2.4b]	< 10
CC1Cn2c(nc3cc(C#Cc4ccccn4)ccc3c2=O)CN1C (single isomer, unassigned) [Example 2.5a]	30 to 100
CCC1CCCc2nc3cc(C#Cc4ccccn4)ccc3c(=O)n21 (single isomer, unassigned) [Example 2.7a]	30 to 100
CCC1CCCc2nc3cc(C#Cc4ccccn4)ccc3c(=O)n21 (single isomer, unassigned) [Example 2.7b]	< 10
CC1(F)CCc2nc3cc(C#Cc4ccccn4)ccc3c(=O)n2C1 (single isomer, unassigned) [Example 2.13a]	10 to 30
O=c1c2ccc(C#Cc3ccccn3)cc2nc2n1CC(C(F)(F)F)CC2 (single isomer, unassigned) [Example 2.14b]	< 10
CC1(C)CC(F)c2nc3cc(C#Cc4ccccn4)cnc3c(=O)n2C1 (single isomer, unassigned) [Example 2.15a]	30 to 100
CC1CCc2nc3cc(C#Cc4ccccn4)cnc3c(=O)n2C1 (single isomer, unassigned) [Example 2.16b]	100 to 300
CC1CCn2c(nc3cc(C#Cc4ccccn4)cnc3c2=O)C1 (single isomer, unassigned) [Example 2.17b]	300 to 1000
O=c1c2ccc(C#Cc3ccccn3)cc2nc2n1C[C@H]1CCCN21 (stereo in doubt) [Example 1.22]	30 to 100
COCCC1Cc2nc3cc(C#Cc4ccccn4)ccc3c(=O)n2C1 (stereo not drawn) [Example 1.5, 2-(2-methoxyethyl)-6-(pyridin-2-ylethynyl)-2,3-dihydropyrrolo[2,1-b]quinazolin-9(1H)-one]	100 to 300
O=c1c2ccc(C#Cc3ccccn3)cc2nc2n1CC1(COC1)C2 [Example 1.6, 6′-(pyridin-2-ylethynyl)-1′H-spiro[oxetane-3,2′-pyrrolo[2,1-b]quinazolin]-9′(3′H)-one]	30 to 100
CC1(C)Cc2nc3c(F)c(C#Cc4ccccn4)ccc3c(=O)n2C1 [Example 1.16, 5-fluoro-2,2-dimethyl-6-(pyridin-2-ylethynyl)-2,3-dihydropyrrolo[2,1-b]quinazolin-9(1H)-one]	< 10
O=c1c2ncc(C#Cc3ccccn3)cc2nc2n1CC(C(F)(F)F)C2 (stereo not drawn) [Example 1.17, 3-(pyridin-2-ylethynyl)-7-(trifluoromethyl)-7,8-dihydropyrido[3,2-d]pyrrolo[1,2-a]pyrimidin-10(6H)-one]	100 to 300
COCCC1Cc2nc3cc(C#Cc4ccccn4)cnc3c(=O)n2C1 (stereo not drawn) [Example 1.18, 7-(2-methoxyethyl)-3-(pyridin-2-ylethynyl)-7,8-dihydropyrido[3,2-d]pyrrolo[1,2-a]pyrimidin-10(6H)-one]	300 to 1000
CC1(C)Cn2c(nc3cc(C#Cc4ccccn4)cnc3c2=O)C1F (stereo not drawn) [Example 1.20, 6-fluoro-7,7-dimethyl-3-(pyridin-2-ylethynyl)-7,8-dihydropyrido[3,2-d]pyrrolo[1,2-a]pyrimidin-10(6H)-one]	100 to 300
O=c1c2ccc(C#Cc3ccccn3)cc2nc2n1CC1CCCCN21 (stereo not drawn) [Example 1.23, 3-(pyridin-2-ylethynyl)-9,10,10a,11-tetrahydro-7H-pyrido[1′,2′:3,4]imidazo[2,1-b]quinazolin-13(8H)-one]	30 to 100

Continued, values first:

EC50 [nM]	Structure (SMILES)
100 to 300	CCC1CCc2nc3cc(C#Cc4ccccn4)cnc3c(=O)n2C1 (single isomer, unassigned) [Example 2.22b]
10 to 30	CCC1CCn2c(nc3cc(C#Cc4ccccn4)cnc3c2=O)C1 (single isomer, unassigned) [Example 2.22c]
30 to 100	O=c1c2ccc(C#Cc3ccccn3)cc2nc2n1CCC(F)CC2 (single isomer, unassigned) [Example 3.1a]
300 to 1000	O=c1c2ccc(C#Cc3ccccn3)cc2nc2n1CCC(O)CC2 (single isomer, unassigned) [Example 3.2a]
30 to 100	O=c1c2ccc(C#Cc3ccccn3)cc2nc2n1CCC(O)CC2 (single isomer, unassigned) [Example 3.2b]
30 to 100	O=c1c2ccc(C#Cc3ccccn3)cc2nc2n1CC1COCC1CC2 (single isomer, unassigned) [Example 3.2d]
30 to 100	O=c1c2ccc(C#Cc3ccccn3)cc2nc2n1CCC1COCC1C2 (single isomer, unassigned) [Example 3.2e]
< 10	O=c1c2ccc(C#Cc3ccccn3)cc2nc2n1CCC1COCC1C2 (single isomer, unassigned) [Example 3.2f]
30 to 100	O=c1c2ccc(C#Cc3ccccn3)cc2nc2n1CCC1(CCCO1)CC2 (single isomer, unassigned) [Example 3.3a]
100 to 300	O=c1c2ccc(C#Cc3ccccn3)cc2nc2n1CCC1(CCCO1)CC2 (single isomer, unassigned) [Example 3.3b]
30 to 100	O=c1c2ncc(C#Cc3ccccn3)cc2nc2n1CCC(C(F)(F)F)CC2 (single isomer, unassigned) [Example 3.9a]
100 to 300	CC1(F)CCc2nc3cc(C#Cc4ccccn4)cnc3c(=O)n2CC1 (single isomer, unassigned) [Example 3.10a]
< 10	CC1CCc2nc3c(F)c(C#Cc4ccccn4)ccc3c(=O)n2CC1 (single isomer, unassigned) [Example 3.12a]
10 to 30	CC1CCc2nc3c(F)c(C#Cc4ccccn4)ccc3c(=O)n2CC1 (single isomer, unassigned) [Example 3.12b]
< 10	CCC1CCc2nc3cc(C#Cc4ccccn4)ccc3c(=O)n2CC1 (single isomer, unassigned) [Example 3.13a]
10 to 30	CCC1CCc2nc3cc(C#Cc4ccccn4)ccc3c(=O)n2CC1 (single isomer, unassigned) [Example 3.13b]
30 to 100	CCC1CCc2nc3cc(C#Cc4ccccn4)cnc3c(=O)n2CC1 (single isomer, unassigned) [Example 3.14a]
< 10	CC1(F)CCCc2nc3cc(C#Cc4ccccn4)ccc3c(=O)n2C1 (single isomer, unassigned) [Example 3.24a]
30 to 100	CC1Cc2nc3cc(C#Cc4ccccn4)cnc3c(=O)n2CCC1(F)F (single isomer, unassigned) [Example 3.31c]
30 to 100	CC1Cn2c(nc3cc(C#Cc4ccccn4)cnc3c2=O)CCC1(F)F (single isomer, unassigned) [Example 3.31e]
300 to 1000	C=CC1(O)CCc2nc3cc(C#Cc4ccccn4)ccc3c(=O)n2C1 (stereo not drawn) [Example 2.18, 8-hydroxy-3-(pyridin-2-ylethynyl)-8-vinyl-8,9-dihydro-6H-pyrido[2,1-b]quinazolin-11(7H)-one]
30 to 100	O=c1c2ncc(C#Cc3ccccn3)cc2nc2n1CCC(C(F)(F)F)C2 (stereo not drawn) [Example 2.21, 3-(pyridin-2-ylethynyl)-7-(trifluoromethyl)-8,9-dihydro-6H-dipyrido[1,2-a:3′,2′-d]pyrimidin-11(7H)-one]
< 10	CC1(C)CCn2c(nc3cc(C#Cc4cccc(C#N)n4)ccc3c2=O)C1 [Example 2.24a, 6-((7,7-dimethyl-11-oxo-7,8,9,11-tetrahydro-6H-pyrido[2,1-b]quinazolin-3-yl)ethynyl)picolinonitrile]
10 to 30	CC1(C)CCc2nc3cc(C#Cc4cccc(C#N)n4)ccc3c(=O)n2C1 [Example 2.24b, 6-((8,8-dimethyl-11-oxo-7,8,9,11-tetrahydro-6H-pyrido[2,1-b]quinazolin-3-yl)ethynyl)picolinonitrile]
10 to 30	CC1(C)CCn2c(nc3cc(C#Cc4cc(C#N)ccn4)ccc3c2=O)C1 [Example 2.25a, 2-((7,7-dimethyl-11-oxo-7,8,9,11-tetrahydro-6H-pyrido[2,1-b]quinazolin-3-yl)ethynyl)isonicotinonitrile]
< 10	CC1(C)CCc2nc3cc(C#Cc4cc(C#N)ccn4)ccc3c(=O)n2C1 [Example 2.25b, 2-((8,8-dimethyl-11-oxo-7,8,9,11-tetrahydro-6H-pyrido[2,1-b]quinazolin-3-yl)ethynyl)isonicotinonitrile]
100 to 300	CC1(C)CCC2Cn3c(nc4cc(C#Cc5ccccn5)ccc4c3=O)CN21 (stereo not drawn) [Example 2.26, 3,3-dimethyl-8-(pyridin-2-ylethynyl)-2,3,13,13a-tetrahydro-1H-pyrrolo[1′,2′:4,5] pyrazino[2,1-b]quinazolin-11(5H)-one]
10 to 30	CC1(C)CCn2c(nc3c(F)c(C#Cc4ccccn4)ccc3c2=O)C1 [Example 2.30a, 4-fluoro-7,7-dimethyl-3-(pyridin-2-ylethynyl)-8,9-dihydro-6H-pyrido[2,1-b]quinazolin-11(7H)-one]

Reference: patent publication US9708331B2, “Metabotrophic glutamate receptor 5 modulators and methods of use thereof” (SUNOVION PHARMACEUTICALS INC., priority 2011, dated 2017)
